These results are taken from ChEMBL document CHEMBL3244274, “Antiallergic 9-oxo-11-hydroxy-5H,9H-[2]benzopyrano[4,3-g][1]benzopyrans” (J Med Chem, 1978).

Each structure is given as a SMILES string. ≈ marks a conversion by molar mass, not a printed value.

In series [1] the test system is Stomach. Kind of series: Antiallergic activity in rat stomach strips assessed as inhibition of […]-induced anaphylaxis. It counts as functional, tissue-based.
In series [2] the test system is Stomach. Kind of series: Antiallergic activity in rat stomach strips assessed as inhibition of PGE2-induced anaphylaxis. It is filed as functional, tissue-based.
Series [3] concerns Rattus norvegicus. Briefly: Antiallergic activity in adrenalectomized Sprague-Dawley rat assessed as inhibition of egg albumin-induced passive cutaneous anaphylaxis reaction at 10 mg/kg, iv after 30 mins by Evans blue staining. It is filed as functional. The settings on record: 0.5 h.
In series [4] the test system is Ileum. Briefly: Antiallergic activity in guinea pig ileum strips assessed as inhibition of serotonin-induced anaphylaxis. It is filed as functional, tissue-based. As to conditions: Cavia porcellus.
The test system of series [5] is Rattus norvegicus. Kind of series: Antiallergic activity in iv dosed adrenalectomized Sprague-Dawley rat assessed as inhibition of egg albumin-induced passive cutaneous anaphylaxis reaction after 30 mins by Evans blue staining. It counts as functional. The settings on record: 0.5 h.
For series [6], the system named is Ileum. Briefly: Antiallergic activity in guinea pig ileum strips assessed as inhibition of histamine-induced anaphylaxis. It counts as functional, tissue-based. The settings on record: Cavia porcellus.
Series [7] in a line: Antiallergic activity in guinea pig lung tissue assessed as inhibition of SRS-A production. It counts as functional, tissue-based, Cavia porcellus.
Series [8] concerns Ileum. Kind of series: Antiallergic activity in guinea pig ileum strips assessed as inhibition of bradykinin-induced anaphylaxis. It counts as functional, tissue-based. As to conditions: Cavia porcellus.
Series [9] concerns Stomach. Kind of series: Antiallergic activity in rat stomach strips assessed as inhibition of […]-induced anaphylaxis at 25 ug/ml. It counts as functional.
A short description of series [10]: Antiallergic activity in guinea pig lung tissue assessed as inhibition of SRS-A production at 1 ug/ml. It counts as functional. The settings on record: Cavia porcellus.
The test system of series [11] is Stomach. Briefly: Antiallergic activity in rat stomach strips assessed as inhibition of […]-induced anaphylaxis at 100 ug/ml. It is filed as functional.
The test system of series [12] is Rattus norvegicus. Kind of series: Antiallergic activity in adrenalectomized Sprague-Dawley rat assessed as inhibition of egg albumin-induced passive cutaneous anaphylaxis reaction at 3 mg/kg, iv after 30 mins by Evans blue staining. The settings on record: 0.5 h. It is filed as functional.
Series [13] relates to Rattus norvegicus. Briefly: Toxicity in adrenalectomized Sprague-Dawley rat at 10 mg/kg, iv. It counts as organism-based. More on the design: dose 10 mg/kg, route intravenous. The settings on record: in vivo.
In series [14] the test system is Stomach. Kind of series: Antiallergic activity in rat stomach strips assessed as inhibition of PGE2-induced anaphylaxis at 25 ug/ml. It counts as functional.

The EC50 is the midpoint of the concentration-response curve. By inhibition in vivo is commonly meant the percentage by which the read-out fell short of the control. The term ED50 denotes the dose that gives a 50% effect, or the effect in half of the subjects. On to `CC1(C)Oc2cc3oc(C(=O)O)cc(=O)c3cc2-c2ccccc21.NCCO`, for which the EC50 in [1] is 17 µg/mL; in series [2], 70 µg/mL; in series [4], 92 µg/mL; in series [6], 150 µg/mL; in series [7], 32 µg/mL; in series [8], 145 µg/mL. Besides, in [3], the inhibition in vivo at 10 mg/kg came to 81%. In series [5], the median effective dose (ED50) was determined as 0.5 mg/kg.
For the molecule `CC1(C)Oc2cc3oc(=O)cc([O-])c3cc2-c2ccc(Cl)cc21.[Na+]`, the 50% effective concentration (EC50) was found to be 45 µg/mL in [2], 10.2 µg/mL in series [4], 21 µg/mL in series [6] and 5.3 µg/mL in series [8]. In addition, in series [3], the inhibition in vivo at 10 mg/kg was determined as 0%.
In general, inhibition refers to the percentage by which the read-out fell short of the control. For `CN1CCC(=C2c3ccccc3C=Cc3ccccc32)CC1` [CYPROHEPTADINE], the inhibition at 25 µg/mL in series [9] was determined as 33%; in series [14] it was 54%. Moreover, the inhibition at 1 µg/mL in [10] amounted to 62%. For the same molecule, the EC50 in series [1] is 65 µg/mL (≈ 226 µM); in series [2], 25 µg/mL (≈ 87 µM); in [4], 0.04 µg/mL (≈ 0.139 µM); in [6] it was 0.04 µg/mL (≈ 0.139 µM); in series [7] it was under 1 µg/mL; in [8] it was 2 µg/mL (≈ 6.96 µM). Also, the inhibition in vivo at 10 mg/kg in series [3] came to 51%. The inhibition at 100 µg/mL in series [11] was 74%. In addition, in series [12], the inhibition in vivo at 3 mg/kg worked out at 30%. For the same molecule, in [13], the Activity result was “Toxic”.
For the molecule `Cc1c2c(cc3oc(=O)cc([O-])c13)OC(C)(C)c1ccccc1-2.[Na+]`, in series [3], the inhibition in vivo at 10 mg/kg was 0%. Besides, the EC50 in series [4] was 4.8 µg/mL; in series [6], 14.5 µg/mL; in [8], 17.5 µg/mL.
Turning to `CC1(C)Oc2cc3oc(=O)cc(O)c3cc2-c2ccc(F)cc21`, in series [3], the inhibition in vivo at 10 mg/kg turned out to be 60%.
In the case of `CC1(C)Oc2cc3oc(=O)cc([O-])c3cc2-c2ccc(O)cc21.[Na+]`, the EC50 in series [1] is 47 µg/mL; in series [2], 40 µg/mL; in series [4], 15 µg/mL; in series [6], over 200 µg/mL; in series [7] it was 13 µg/mL; in [8] it was 84 µg/mL. The inhibition in vivo at 10 mg/kg in series [3] turned out to be 61%.
On to `CC1(C)Oc2cc3oc(=O)cc([O-])c3cc2-c2ccccc21.[Na+]`, for which the concentration giving a half-maximal response (EC50) was determined as 26 µg/mL in [1]; 56 µg/mL in [2]; 10.2 µg/mL in series [4]; 55 µg/mL in series [6]; 17 µg/mL in series [8]. Also, the inhibition in vivo at 10 mg/kg in series [3] is 67%.
For `O=C([O-])c1cc(=O)c2c(OCC(O)COc3cccc4oc(C(=O)[O-])cc(=O)c34)cccc2o1.[Na+].[Na+]` [CROMOLYN SODIUM], the EC50 in series [1], in [2], in series [4], in [6], in series [7] and in [8] was over 200 µg/mL throughout. Further, in series [3], the inhibition in vivo at 10 mg/kg was 80%. In addition, the median effective dose (ED50) in [5] came out at 2.9 mg/kg.
For `CCCOc1ccc2c(c1)C(C)(C)Oc1cc3oc(=O)cc([O-])c3cc1-2.[Na+]`, the concentration giving a half-maximal response (EC50) in series [2] worked out at 70 µg/mL; in series [4], 4.7 µg/mL; in [6] it was 7 µg/mL; in [8], 14 µg/mL. Moreover, in series [3], the inhibition in vivo at 10 mg/kg worked out at 0%.
As to `CC1(C)Oc2cc3oc(=O)cc([O-])c3cc2-c2ccc(OCCO)cc21.[Na+]`, the concentration for a half-maximal effect (EC50) in series [1] was 16 µg/mL; in series [2] it was 62 µg/mL; in [4] it was 11 µg/mL; in [6], over 200 µg/mL; in series [8], 92 µg/mL. For the same molecule, in series [3], the inhibition in vivo at 10 mg/kg was determined as 87%. Also, the median effective dose (ED50) in series [5] worked out at 0.3 mg/kg.
On to `COc1cc2c(cc1Br)-c1cc3c([O-])cc(=O)oc3cc1OC2(C)C.[Na+]`, for which the half-maximal effective concentration (EC50) in series [1] was 14 µg/mL; in series [2], 55 µg/mL; in series [4] it was 4.4 µg/mL; in [6], 39 µg/mL; in [7] it was 28 µg/mL; in [8], 51 µg/mL. Moreover, the inhibition in vivo at 10 mg/kg in series [3] amounted to 33%.
With `COc1ccc2c(c1)C(C)(C)Oc1cc3oc(=O)cc([O-])c3cc1-2.[Na+]`, the half-maximal effective concentration (EC50) in [1] is 23 µg/mL; in series [2] it was 68 µg/mL; in [4], 16 µg/mL; in series [6] it was 13.2 µg/mL; in series [8], 9.2 µg/mL. Further, the inhibition in vivo at 10 mg/kg in [3] came to 67%. Moreover, the 50% effective dose (ED50) in [5] is 9 mg/kg.
